# Test results taken from patent publication US11840686B2, “Modulation of prekallikrein (PKK) expression” (Ionis Pharmaceuticals, Inc., priority 2013, dated 2023).
# Strand notation (5' to 3'): a small letter for the sugar, then the base; units joined by * are phosphorothioate-linked, units joined directly phosphodiester-linked; [ ] holds rarer units or linkages, { } end groups; capitals alone tell only the bases. e = 2'-O-(2-methoxyethyl) (MOE); k = constrained ethyl (cEt); [5mC] = 5-methylcytosine; d = 2'-deoxy (DNA)
# Test system: human PKK mRNA
# Test: Antisense inhibition of human PKK mRNA in HepaRG cells, 1,000 nM, MOE/deoxy/cEt oligonucleotides (Example 3)
# Assay type: cell-based
# Conditions: HepaRG cells, electroporation with 1,000 nM antisense oligonucleotide
# Procedure, shortened: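 Readout is percent PKK mRNA reduction against untreated controls, by real-time PCR (RTS3454) adjusted for total RNA via RIBOGREEN. Oligonucleotides, phosphorothioate gapmers of 16 nucleosides with cEt, MOE and deoxy sugars, were delivered at 1,000 nM by electroporation to 20,000 HepaRG cells/well for roughly 24 h.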
# [1] = Table 20, approximately 24 hours, PKK mRNA by RT-PCR (RTS3454), relative to untreated control cells
# [2] = Table 22 experiment, approx. 24 hours, PKK mRNA by RT-PCR (RTS3454), relative to untreated control cells
# [3] = approximately 24 hours, primer probe set RTS3454, relative to untreated control cells, experiment of Table 23
Substance,% inhibition [1] [%],% inhibition [2] [%],% inhibition [3] [%]
547881 (eA*eT*kT*d[5mC]*dT*dT*d[5mC]*dA*dA*d[5mC]*dA*d[5mC]*dT*kG*k[5mC]*eT; antisense) [compound 547881],0,50,
547882 (e[5mC]*eT*kG*dG*d[5mC]*dA*dG*d[5mC]*dG*dA*dA*dT*dG*kT*kT*eA; antisense) [compound 547882],91,96,
547883 (eA*e[5mC]*kT*dG*dG*d[5mC]*dA*dG*d[5mC]*dG*dA*dA*dT*kG*kT*eT; antisense) [compound 547883],99,0,
547884 (e[5mC]*eG*kT*dG*dG*d[5mC]*dA*dT*dA*dT*dG*dA*dA*kA*kA*eA; antisense) [compound 547884],87,49,
547885 (e[5mC]*eT*k[5mC]*dT*dG*d[5mC]*d[5mC]*dT*dT*dG*dT*dG*dA*kA*kA*eT; antisense) [compound 547885],45,57,
547886 (e[5mC]*eG*kG*dT*dA*d[5mC]*dT*d[5mC]*dT*dG*d[5mC]*d[5mC]*dT*kT*kG*eT; antisense) [compound 547886],97,89,
547887 (e[5mC]*e[5mC]*kG*dG*dT*dA*d[5mC]*dT*d[5mC]*dT*dG*d[5mC]*d[5mC]*kT*kT*eG; antisense) [compound 547887],,99,
547888 (eT*e[5mC]*k[5mC]*dG*dG*dT*dA*d[5mC]*dT*d[5mC]*dT*dG*d[5mC]*k[5mC]*kT*eT; antisense) [compound 547888],,99,
547889 (eT*eT*k[5mC]*d[5mC]*dG*dG*dT*dA*d[5mC]*dT*d[5mC]*dT*dG*k[5mC]*k[5mC]*eT; antisense) [compound 547889],91,97,
547890 (eT*eT*kG*dT*dT*d[5mC]*d[5mC]*dG*dG*dT*dA*d[5mC]*dT*k[5mC]*kT*eG; antisense) [compound 547890],97,90,
547891 (eA*eT*kT*dG*dT*dT*d[5mC]*d[5mC]*dG*dG*dT*dA*d[5mC]*kT*k[5mC]*eT; antisense) [compound 547891],84,88,
547892 (e[5mC]*eA*kA*dT*dT*dG*dT*dT*d[5mC]*d[5mC]*dG*dG*dT*kA*k[5mC]*eT; antisense) [compound 547892],29,28,
547893 (eG*e[5mC]*kA*dA*dT*dT*dG*dT*dT*d[5mC]*d[5mC]*dG*dG*kT*kA*e[5mC]; antisense) [compound 547893],81,80,
547894 (eG*eG*k[5mC]*dA*dA*dT*dT*dG*dT*dT*d[5mC]*d[5mC]*dG*kG*kT*eA; antisense) [compound 547894],92,91,
547895 (eA*eG*kG*d[5mC]*dA*dA*dT*dT*dG*dT*dT*d[5mC]*d[5mC]*kG*kG*eT; antisense) [compound 547895],,94,
547896 (eT*eA*kG*dG*d[5mC]*dA*dA*dT*dT*dG*dT*dT*d[5mC]*k[5mC]*kG*eG; antisense) [compound 547896],,95,
547897 (eA*eT*kA*dG*dG*d[5mC]*dA*dA*dT*dT*dG*dT*dT*k[5mC]*k[5mC]*eG; antisense) [compound 547897],,82,
547898 (e[5mC]*eT*kT*dT*dA*dA*dT*dA*dG*dG*d[5mC]*dA*dA*kT*kT*eG; antisense) [compound 547898],0,28,
547899 (eG*eT*kA*d[5mC]*dT*dT*dT*dA*dA*dT*dA*dG*dG*k[5mC]*kA*eA; antisense) [compound 547899],49,68,
547900 (eT*eG*kT*dA*d[5mC]*dT*dT*dT*dA*dA*dT*dA*dG*kG*k[5mC]*eA; antisense) [compound 547900],93,68,
547901 (e[5mC]*eT*kG*dT*dA*d[5mC]*dT*dT*dT*dA*dA*dT*dA*kG*kG*e[5mC]; antisense) [compound 547901],77,85,
547902 (eA*e[5mC]*kT*dG*dT*dA*d[5mC]*dT*dT*dT*dA*dA*dT*kA*kG*eG; antisense) [compound 547902],20,33,
547903 (e[5mC]*eT*k[5mC]*dA*dG*d[5mC]*dA*d[5mC]*d[5mC]*dT*dT*dT*dA*kT*kA*eG; antisense) [compound 547903],62,6,
547904 (eA*e[5mC]*kT*d[5mC]*dA*dG*d[5mC]*dA*d[5mC]*d[5mC]*dT*dT*dT*kA*kT*eA; antisense) [compound 547904],56,41,

Substance,% inhibition [1] [%],% inhibition [2] [%],% inhibition [3] [%]
547905 (eT*eA*k[5mC]*dT*d[5mC]*dA*dG*d[5mC]*dA*d[5mC]*d[5mC]*dT*dT*kT*kA*eT; antisense) [compound 547905],20,59,
547906 (eT*eT*kA*d[5mC]*dT*d[5mC]*dA*dG*d[5mC]*dA*d[5mC]*d[5mC]*dT*kT*kT*eA; antisense) [compound 547906],59,70,
547907 (eA*eT*kT*dT*d[5mC]*dT*dG*dA*dA*dA*dG*dG*dG*k[5mC]*kA*e[5mC]; antisense) [compound 547907],27,27,
547908 (e[5mC]*eA*kA*dT*dT*dT*d[5mC]*dT*dG*dA*dA*dA*dG*kG*kG*e[5mC]; antisense) [compound 547908],94,71,
547909 (e[5mC]*e[5mC]*kA*dA*dT*dT*dT*d[5mC]*dT*dG*dA*dA*dA*kG*kG*eG; antisense) [compound 547909],82,51,
547910 (eA*e[5mC]*k[5mC]*dA*dA*dT*dT*dT*d[5mC]*dT*dG*dA*dA*kA*kG*eG; antisense) [compound 547910],26,34,
547911 (eT*eG*kG*d[5mC]*dA*dA*d[5mC]*d[5mC]*dA*dA*dT*dT*dT*k[5mC]*kT*eG; antisense) [compound 547911],0,15,
547912 (eA*eT*k[5mC]*d[5mC]*dA*d[5mC]*dA*dT*d[5mC]*dT*dG*dA*dG*kA*kA*e[5mC]; antisense) [compound 547912],23,53,
547913 (eG*e[5mC]*kA*dA*d[5mC]*dA*dT*d[5mC]*d[5mC]*dA*d[5mC]*dA*dT*k[5mC]*kT*eG; antisense) [compound 547913],71,61,
547914 (eG*eG*k[5mC]*dA*dA*d[5mC]*dA*dT*d[5mC]*d[5mC]*dA*d[5mC]*dA*kT*k[5mC]*eT; antisense) [compound 547914],74,63,
547915 (eT*eG*kG*d[5mC]*dA*dA*d[5mC]*dA*dT*d[5mC]*d[5mC]*dA*d[5mC]*kA*kT*e[5mC]; antisense) [compound 547915],0,62,
547916 (e[5mC]*e[5mC]*kT*dG*dG*d[5mC]*dA*dA*d[5mC]*dA*dT*d[5mC]*d[5mC]*kA*k[5mC]*eA; antisense) [compound 547916],70,56,
547917 (eA*e[5mC]*k[5mC]*d[5mC]*dT*dG*dG*d[5mC]*dA*dA*d[5mC]*dA*dT*k[5mC]*k[5mC]*eA; antisense) [compound 547917],33,54,
547918 (eA*eA*k[5mC]*d[5mC]*d[5mC]*dT*dG*dG*d[5mC]*dA*dA*d[5mC]*dA*kT*k[5mC]*e[5mC]; antisense) [compound 547918],1,65,
547919 (eG*eA*kA*d[5mC]*d[5mC]*d[5mC]*dT*dG*dG*d[5mC]*dA*dA*d[5mC]*kA*kT*e[5mC]; antisense) [compound 547919],41,73,
547920 (eG*eA*kG*dA*dA*d[5mC]*d[5mC]*d[5mC]*dT*dG*dG*d[5mC]*dA*kA*k[5mC]*eA; antisense) [compound 547920],,,52
547921 (eT*eG*kA*dG*dA*dA*d[5mC]*d[5mC]*d[5mC]*dT*dG*dG*d[5mC]*kA*kA*e[5mC]; antisense) [compound 547921],,,43
547923 (eA*eT*k[5mC]*dT*dG*dG*dA*dG*dT*dG*dA*dG*dA*kA*k[5mC]*e[5mC]; antisense) [compound 547923],,,68
547924 (eG*eT*k[5mC]*d[5mC]*dG*dA*d[5mC]*dA*d[5mC]*dA*d[5mC]*dA*dA*kA*kA*eG; antisense) [compound 547924],,,53
547925 (eG*eG*kT*d[5mC]*d[5mC]*dG*dA*d[5mC]*dA*d[5mC]*dA*d[5mC]*dA*kA*kA*eA; antisense) [compound 547925],,,16
547928 (eG*eA*kT*dG*dG*dT*d[5mC]*d[5mC]*dG*dA*d[5mC]*dA*d[5mC]*kA*k[5mC]*eA; antisense) [compound 547928],,,70
547929 (eA*eG*kA*dT*dG*dG*dT*d[5mC]*d[5mC]*dG*dA*d[5mC]*dA*k[5mC]*kA*e[5mC]; antisense) [compound 547929],,,65
547930 (eT*eG*kA*dT*dA*dG*dG*dT*dG*d[5mC]*dA*dG*dA*kT*kG*eG; antisense) [compound 547930],,,48
